# Laboratory results: patent publication US20110105382A1, “CALMODULIN-BINDING PEPTIDES THAT REDUCE CELL PROLIFERATION IN CANCER AND SMOOTH MUSCLE PROLIFERATION DISEASES” (priority 2007, published 2011)
# Where no end group is shown, it is not given here.
# Key:
# primary mouse aortic SMC [1] = type: cell-based; details: for proliferation of primary mouse aortic SMC (MTT), TAT-fused peptides: 100 μM, MTT after 2 days
# Description: (§1) Cell culture conditions The isolation and culture of primary mouse aortic VSMC have was performed according to methods previously described (Afroze T, Yang L L, Wang C, Gros R, Kalair W, Hogue A N, Mungrue I N, Zhu Z, Husain M. Calcineurin-independent regulation of plasma membrane Ca2+ ATPase-4 in the vascular smooth muscle cell cycle. Am J Physiol Cell Physiol. July 2003; 285(1):C88-95). VSMCs were grown in DMEM (GIBCO/BRL, Gaithersburg, Md.) supplemented with 10% FBS (Hyclone, Logan, Utah), 50 ng/mL platelet-derived growth factor (PDGF, Sigma) and 1% penicillin-streptomycin (GIBCO/BRL). For serum starvation, cells were grown to 60% to 70% confluence, washed twice with PBS, and cultured in starvation medium (0.25% FBS-supplemented DMEM) for 72 hours to achieve Go arrest. Progression to G1/S was brought about by stimulation with 10% FBS and 50 ng/mL PDGF for 24 hours. Cells and reagents for primary human aortic VSMC culture were purchased from Cascade Biologics. Human VSMC(C-007-5C) were grown in Medium 231 with Smooth Muscle Growth Supplement (SMGS) S-007-25 and 1% penicillin-streptomycin (GIBCO/BRL). Cyclin E1/E2 double knockout mouse embryonic fibroblasts (MEF) were kindly provided by Dr. P. Sicinski (Harvard Medical School), and maintained in DMEM with 10% FBS (Hyclone) and 1% penicillin-streptomycin (GIBCO/BRL). Go arrest of MEF was achieved by starvation for 48 h in medium lacking FBS. Mouse embryonic fibroblasts (MEF) were maintained for normal culture in 10% FBS-supplemented DMEM. For the starvation of MEF, cells were cultured in starvation medium without FBS for 48 hours to achieve Go arrest. HeLa (human cervical cancer cell), Saos-2 (human osteosarcoma cell) and A549 (human lung cancer cell) were cultured in 10% FBS-supplemented DMEM.
# (§2) MTT colorimetric survival assay. Active mitochondria of living cells can cleave MTT to produce formazan, the amount of which is directly proportional to the number of living cells. Cell survival was assessed (Denizot, 1986). Cells in 96-well plate were washed two times with PBS followed by 4 hr of incubation at 37° C. with 1 mg/ml of MTT (in phenol red free DMEM supplemented with 2 mM of L-glutamine & 1 mM of sodium pyruvate) in a reaction volume of 100 μl. After removing MTT solution, DMSO was added to dissolve formazan crystals. Plate was shaken for 5 min at 55° C. for complete dissolve. Dye absorbance in viable cells was measured at 570 nm with 630 nm as a reference wavelength. All experiments were repeated at least 3 times, and each experimental condition was repeated in at least quadruplicate wells in each experiment.
# (§3) Nucleofection. For peptides delivery via Nucleofector technology, 1×10^6 cells were harvested, resuspended in 100 μl of Nucleofector solution (for VSMC: Cat. No. VPI-1004; for MEF: Cat. No.: VPD-1005, both provided by Amaxa GmBH, Köln, Germany) and mixed with 100 nmole (in 10 μl) of each peptide. The cell solution was transferred into a kit-provided cuvette and positioned into a Nucleofector device. Subsequently, the transfection was performed with a single pulse using the preprogrammed nucleofection program (A-33 for VSMC; T-20 for MEF) according to the manufacturer's recommendation. Following nucleofection, the cells were transferred into 96-well plate (2K or 5K cells per well for MTT assay) or T25 culture flasks (for FACS analysis) containing pre-warmed stem cell medium using kit-provided plastic pipettes to prevent cell damage and the cells were cultured at 37° C. in 5% CO2.
# primary mouse aortic SMC [2] = assay: Lactate dehydrogenase (LDH) cytotoxicity assay; type: cell-based; details: nucleofection, 1 mM, asynchronized cells
# Description: Lactate dehydrogenase (LDH) assay. To measure the level of cytotoxicity, LDH based in vitro toxicology assay kit (Sigma, Cat. No.: TOX-7) was used (Legrand, 1992). After nucleofection of peptides, 10^6 cells were grown on 24-well plate in the presence of phenol red free DMEM. 3 days later, 500 μl of cell culture media was collected from each well for assay followed by centrifugation (12,000 rpm, 30 min, at 4° C.) to remove any cell debris completely. Subsequent procedures for enzymatic assay were performed according to manufacture's protocol.
# as §3, with “Following nucleofection, the cells were transferred into 96-well plate (2K or 5K cells per well for MTT assay) or T25 culture flasks (for FACS analysis) containing pre-warmed stem cell medium using kit-provided plastic pipettes to prevent cell damage and the cells were cultured at 37° C. in 5% CO2.” left out
# cyclin E/CDK2 = molecular target: T1, cyclin E/CDK2 (Mus musculus, UniProt P0DP26); assay: Histone H1 in vitro kinase assay; type: biochemical; details: G1/S-synchronized mouse VSMC, each peptide 100 μM
# T1 construct: endogenous in cells; host or cells: primary mouse aortic VSMC (G1/S-synchronized), immunoprecipitated complexes
# Description: Immunoprecipitation and kinase assays. 5×10^6 SMC were harvested and re-suspended with 2 ml of lysis buffer (50 mM Tris (pH 7.4), 250 mM NaCl, 5 mM EDTA, 0.1% NP-40, 0.5 mM DTT, 0.1 mM Na3VO4, 5 μg/ml leupeptin, 5 μg/ml aprotinin, 2 mM PMSF, and 10% glycerol). After homogenization, cell lysates were clarified by centrifugation at 12×10^3 rpm, 4° C. for 30 min, and the supernatant was collected. An aliquot was taken for protein concentration determination using the BCA protein assay kit (Sigma). Cell extracts (200 μg) were then incubated for 2 hr at 4° C. with saturating concentrations of polyclonal antibodies (Abs). […]
# For the in vitro kinase assays, 20 μl of kinase reaction mixture (20 mM Tris (pH 7.4), 5 mM MgCl2, 2.5 mM MnCl2, 1 mM DTT, 10 μg of C-terminal of human Rb protein (Upstate Biotech.) or 4 μg of histone-H1 (Upstate Biotech.) as substrates, 13 μM ATP, and 2.4 μCi [γ-^32P]ATP (Amersham Pharmacia)) was added to CDK2-, cyclin E-, or cyclin A-immunoprecipitated (IPd) complexes after removing the washing buffer from GammaBind™ G Sepharose resin. Based on the total calcium content of kinase reaction mixtures (as determined by inductively coupled plasma atomic emission spectrometry), amounts of EGTA required to yield final concentrations of free Ca^2+ ion (0, 100 or 500 nM) were calculated by WinMaxC (http://www.stanford.edu/˜cpatton/winmaxc2.html). […]
# [3] = tested on: Saos-2 (human osteosarcoma); assay: MTT proliferation assay, Saos-2; type: cell-based; details: 100 μM, MTT after 2 days
# Description: as §1, §2
# [4] = tested on: A549 (human lung cancer cell); assay: MTT proliferation assay, A549; type: cell-based; details: 100 μM, MTT after 2 days
# Description: as §1, §2
# [5] = tested on: HeLa (human cervical cancer cell); assay: MTT proliferation assay, HeLa; type: cell-based; details: 100 μM, MTT after 2 days
# Description: as §1, §2
# [6] = tested on: mouse carotid artery injury model; assay: Mouse carotid artery injury model (wire denudation); type: in vivo; details: truncated peptides, arteries harvested 14 days following injury
# Description: Injury of mouse carotid arteries (wire denudation) and local administration of CBS peptide. The mice (8-12 weeks, 20-25 g) were anesthetized with i.p. Ketamine (100 mg/kg, MTC Pharmaceuticals, Cambridge, ON, Canada) and Xylazine (10 mg/kg, Bayer Inc., Etobicoke, ON, Canada). Surgical procedures were performed under a dissecting microscope (MZ6 Leica, Heerbrugg, Switzerland). The left carotid artery was exposed via a midline incision on the ventral side of the neck. The bifurcation of the carotid artery was located and two ligatures were placed around the external carotid artery. This vessel was then tied off with the distal ligature. […] An incision hole is made between the two ligatures of external carotid artery, through which the denudation device is introduced. This device consists of a curved flexible copper wire (0.3 mm diameter) which is passed down to the common carotid artery, and under rotation, passed along this segment four times. The wire was then removed, and the external carotid artery was tied off proximal to the incision hole with the proximal ligature. […]
# Tissue processing and analysis. […] Images were analyzed by planimetry using Image J software. […] Medial mass was calculated subtracting the luminal from whole area. […]
# [7] = tested on: primary human aortic VSMC; assay: 3H-thymidine incorporation assay, human aortic VSMC; type: cell-based; details: 10 and 100 μM for 1.0 h, 72 h after treatment
# Description: Cell culture conditions The isolation and culture of primary mouse aortic VSMC have was performed according to methods previously described (Afroze T, Yang L L, Wang C, Gros R, Kalair W, Hogue A N, Mungrue I N, Zhu Z, Husain M. Calcineurin-independent regulation of plasma membrane Ca2+ ATPase-4 in the vascular smooth muscle cell cycle. Am J Physiol Cell Physiol. July 2003; 285(1):C88-95). VSMCs were grown in DMEM (GIBCO/BRL, Gaithersburg, Md.) supplemented with 10% FBS (Hyclone, Logan, Utah), 50 ng/mL platelet-derived growth factor (PDGF, Sigma) and 1% penicillin-streptomycin (GIBCO/BRL). For serum starvation, cells were grown to 60% to 70% confluence, washed twice with PBS, and cultured in starvation medium (0.25% FBS-supplemented DMEM) for 72 hours to achieve Go arrest. Progression to G1/S was brought about by stimulation with 10% FBS and 50 ng/mL PDGF for 24 hours. Cells and reagents for primary human aortic VSMC culture were purchased from Cascade Biologics. […]
# ^3H-thymidine incorporation proliferation assay. […] Cells were grown at 37° C. and analyzed at 24, 48 and 72 h after ^3H-thymidine exposure. […] Solubilized contents of wells were removed and added to 2.5 ml of scintillation fluid (ReadySafe™ Cocktail, Beckman Coulter, Product No. 141349). Radioactivity was measured in a scintillation counter (Beckman Coulter, LS 6500).
sequence,measurement,setting,value
"FAFGRQVNKARSEKALGVSDRT [scrambled, reference compound]",proliferation of primary mouse aortic SMC (MTT),primary mouse aortic SMC [1]; peptide delivered via nucleofection,no effect
GGAEFSARSRKRKANVTVFLQD [CBS],cell death (LDH assay),primary mouse aortic SMC [2],did not cause any increase in cell death
same,maximum level of inhibition of VSMC proliferation,primary mouse aortic SMC [1],50%
same,inhibition of in vitro cyclin E/CDK2 activity,cyclin E/CDK2,40%
"RRRQRRKKRG [TAT domain, reference compound]",proliferation of Saos-2 cells (MTT),[3],no anti-proliferative effect
same,"proliferation of primary mouse aortic SMC (MTT), TAT-fused peptides",primary mouse aortic SMC [1],no anti-proliferative effect
same,proliferation of A549 cells (MTT),[4],no anti-proliferative effect
same,proliferation of HeLa cells (MTT),[5],no anti-proliferative effect
RRRQRRKKRGAEFSARSRKRKANVTVFL (N-terminal TAT peptide; listed as Homo sapiens) [TAT-SEQ ID NO:2 (#3-20)],proliferation of Saos-2 cells (MTT),[3],most powerfully and efficiently
same,"proliferation of primary mouse aortic SMC (MTT), TAT-fused peptides",primary mouse aortic SMC [1],most powerfully and efficiently
same,proliferation of A549 cells (MTT),[4],most powerfully and efficiently
same,proliferation of HeLa cells (MTT),[5],most powerfully and efficiently
same,"anti-proliferative effect on the site of injury (media mass, I/M ratio)",[6],anti-proliferative effect
RRRQRRKKRGEFSARSRKRKANVTVF (N-terminal TAT peptide; listed as Homo sapiens) [TAT-SEQ ID NO:2 (#4-19)],proliferation of Saos-2 cells (MTT),[3],started to lose its proliferative function
same,"proliferation of primary mouse aortic SMC (MTT), TAT-fused peptides",primary mouse aortic SMC [1],started to lose its proliferative function
same,proliferation of A549 cells (MTT),[4],started to lose its proliferative function
same,proliferation of HeLa cells (MTT),[5],started to lose its proliferative function
"RRRQRRKKRGVDIDQARLKMLGQTRPHDDDDC [TAT-NC, reference compound]","3H-thymidine incorporation (S-phase entry), human aortic VSMC",[7],not
RRRQRRKKRGVTVFL (N-terminal TAT cell-penetrating peptide; listed as Homo sapiens) [TAT-SEQ ID NO:2(#16-20)],"anti-proliferative effect on the site of injury (media mass, I/M ratio)",[6],anti-proliferative effect
